Patent US8697694B2, “Substituted pyridine and pyrimidine derivatives and their use in treating viral infections” (priority 2008, dated 2014)

These compounds were tested on HCV replicon cells (assay: Cell-based HCV replicon assay (replicon RNA level by real time PCR, Taqman)). Conditions: Hepatitis C virus, 72 h, HCV replicon cells, harvested day 3, replicon RNA by real time PCR; reported as range class; read-out: EC90 (μM) range.
Procedure, shortened: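 HCV replicon cells treated 3 days with 10 serial 2-fold compound dilutions (top 25 μM to 1 μM; 0.5% DMSO, 10% FBS). Replicon RNA quantified by multiplex Taqman RT-PCR (NS5B amplicon, GAPDH control); EC50 and EC90 = concentrations giving ΔCT of 1 and 3.2 over baseline.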

Structure (SMILES)	EC90 [µM]
Nc1nc(Cl)c(-c2nc3ccc(F)cc3s2)c(N[C@@H]2C[C@H](CO)[C@@H](O)[C@H]2O)n1 [Example 110]	0.5 to 5

Same assay, conditions: Hepatitis C virus, 72 h, HCV replicon cells, harvested on day 3, replicon RNA by real time PCR; calculated EC90 reported as range class; read-out: EC90 (μM) range

Structure (SMILES)	EC90 [µM]
Cc1nc(NCc2cccs2)nc(N[C@@H]2CCCC2=O)c1-c1nc2ccccc2s1 (racemic) [Example 338]	< 0.5
COC[C@H](C)Nc1nc(C)c(-c2nc3ccccc3s2)c(N[C@@H]2C[C@H](CO)[C@@H](O)[C@H]2O)n1 [Example 439]	< 0.5
Cc1nc(NCc2ccccc2C(F)(F)F)nc(N[C@@H]2C[C@H](CO)[C@@H](O)[C@H]2O)c1-c1nc2ccccc2s1 [Example 239]	0.5 to 5
Cc1nc(NCCNC(=O)OCc2ccccc2)nc(N[C@@H]2C[C@H](CO)[C@H]3OC(C)(C)O[C@H]32)c1-c1nc2ccccc2s1 [Example 253]	0.5 to 5
CCc1cc2cc(-c3c(C)nc(NCc4ccccn4)nc3N[C@@H]3C[C@H](CO)[C@H]4OC(C)(C)O[C@H]43)oc2cn1 [Example 343]	> 5
Cc1nc(NCCNC(=O)OCc2ccccc2)nc(N[C@@H]2C[C@H](CO)[C@@H](O)[C@H]2O)c1-c1nc2ccccc2s1 [Example 254]	0.5 to 5

Same assay, conditions: Hepatitis C virus, 72 h, HCV replicon cells, replicon RNA level by real time PCR (Taqman), harvested on day 3; calculated EC90 reported as range class; read-out: EC90 (μM) range

Structure (SMILES)	EC90 [µM]
Cc1nc(Nc2cccc(F)c2)nc(N[C@@H]2C[C@H](CO)[C@@H](O)[C@H]2O)c1-c1nc2cnccc2s1 [Example 1056]	< 0.5
CCCCCCNc1nc(C)c(-c2nc3ccccc3s2)c(N[C@@H]2C[C@H](CO)[C@H]3OC(C)(C)O[C@H]32)n1 [Example 1117]	> 5
Cc1nc(NCC(F)(F)F)nc(N[C@@H]2C[C@H](CN3CCOCC3)[C@@H](O)[C@H]2O)c1-c1nc2ccccc2s1 [Example 1015]	0.5 to 5
COc1ccc2sc(-c3c(C)nc(NCC(F)(F)F)nc3N[C@@H]3C[C@H](CO)[C@@H](O)[C@H]3O)nc2c1 [Example 1010]	0.5 to 5

Same assay, conditions: Hepatitis C virus, 72 h, HCV replicon cells, replicon RNA level by real time PCR, harvested day 3; read-out: EC90 (μM) range

Structure (SMILES)	EC90 [µM]
Cc1nc(NC2CC2)nc(N[C@@H]2C[C@H](CO)[C@@H](O)[C@H]2O)c1-c1nc2c(CC(C)C)nccc2s1 [Example 1537]	< 0.5
Cc1ccc([C@H](Nc2nc(C)c(-c3nc4c(C)nccc4s3)c(N[C@@H]3C[C@H](CO)[C@@H](O)[C@H]3O)n2)C2CC2)cc1 [Example 1362]	< 0.5
Cc1nc(N[C@H](C)c2ccc(OC(F)(F)F)cc2)nc(N[C@@H]2C[C@H](C(C)O)[C@@H](O)[C@H]2O)c1-c1nc2c(C)nccc2s1 (stereo partly drawn) [Example 1399]	< 0.5
Cc1nc(NCC2CC2)nc(N[C@@H]2C[C@H](C(C)O)[C@@H](O)[C@H]2O)c1-c1nc2ccccc2s1 (single isomer, unassigned) [Example 1644]	< 0.5
